Results: ChEMBL document CHEMBL3407366, “Original 2-(3-alkoxy-1H-pyrazol-1-yl)pyrimidine derivatives as inhibitors of human dihydroorotate dehydrogenase (DHODH)” (J Med Chem, 2015)
Converted amounts (≈) assume the structure as drawn. The source made the active and inactive calls. The calls are words filed in the database; no cut-off is given here.

Assays:
Measles morbillivirus [1] = test: Antiviral activity against Measles virus expressing firefly luciferase rMV2/Luc infected in human HEK293 cells assessed as bioluminescence level after 6 mins by luminometry; assay type: functional; conditions: for MIC50: Measles morbillivirus, 0.1 h
HEK293 = test: Cytotoxicity against human HEK293 cells assessed as cell viability after 24 hrs by CellTiter-Glo assay; assay type: cell-based; conditions: hek293, 24 h
[2] = molecular target: Dihydroorotate dehydrogenase (quinone), mitochondrial (Homo sapiens, UniProt Q02127); test: Inhibition of His-tagged human DHODH assessed as reduction of DCIP by spectrophotometry
Chain of Dihydroorotate dehydrogenase (quinone), mitochondrial (Q02127 whole entry): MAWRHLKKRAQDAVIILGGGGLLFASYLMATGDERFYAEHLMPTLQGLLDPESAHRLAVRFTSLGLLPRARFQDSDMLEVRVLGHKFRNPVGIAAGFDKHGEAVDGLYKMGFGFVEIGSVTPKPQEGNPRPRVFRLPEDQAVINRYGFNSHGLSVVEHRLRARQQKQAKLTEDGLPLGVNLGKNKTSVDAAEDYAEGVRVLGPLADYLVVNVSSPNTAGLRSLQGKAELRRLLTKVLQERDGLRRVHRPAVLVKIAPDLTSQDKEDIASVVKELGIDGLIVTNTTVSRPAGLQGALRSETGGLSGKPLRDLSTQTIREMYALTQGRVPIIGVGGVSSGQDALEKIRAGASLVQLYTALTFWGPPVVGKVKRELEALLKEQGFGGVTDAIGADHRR

Measles morbillivirus [3] = test: Antiviral activity against measles virus expressing firefly luciferase rMV2/Luc infected in human HEK293 cells assessed as bioluminescence level at 16 to 195 nM after 6 mins by luminometry in presence of dihydroorotic acid; assay type: functional, organism-based
Measles morbillivirus [4] = test: Antiviral activity against measles virus expressing firefly luciferase rMV2/Luc infected in human HEK293 cells assessed as bioluminescence level at 16 to 195 nM after 6 mins by luminometry in presence of uridine; assay type: functional, organism-based
Measles morbillivirus [5] = test: Antiviral activity against measles virus expressing firefly luciferase rMV2/Luc infected in human HEK293 cells assessed as bioluminescence level at 16 to 195 nM after 6 mins by luminometry in presence of orotic acid; assay type: functional, organism-based

SMILES	pMIC50 (Measles morbillivirus [1])	further results
Cc1c(Oc2c(F)cccc2F)c(OC(C)C)nn1-c1nccc(O)n1	<5	
CCOc1nn(-c2ncc(CC)cn2)c(C)c1Oc1ccc(C(F)(F)F)cc1	5.2	
CCOc1nn(-c2ncc(CC)cn2)c(C)c1C(=O)c1ccccc1	6.2	
Cc1c(Oc2c(F)cccc2F)c(OC(C)C)nn1-c1ncc(F)cn1	6.6	
C/C(O)=C(\C#N)C(=O)Nc1ccc(C(F)(F)F)cc1 [TERIFLUNOMIDE]	5.3	
CCc1cnc(-n2nc(OC(C)C)c(Cc3ccccc3)c2C)nc1	8.4	
CCOc1nn(-c2ccc(C)cn2)c(C)c1Cc1ccccc1	6.2	Activity (HEK293): Non-toxic; MIC50 (Measles morbillivirus [1]): 0.65 µM (≈ 0.2 µg/mL)
CCOc1nn(-c2ncc(CC)cn2)c(C)c1-c1ccccc1	5.4	
CCc1cnc(-n2nc(OC(C)C)c(Oc3ccc(F)cc3F)c2C)nc1	7.9	
Cc1c(Cc2ccccc2)c(O)nn1-c1ncc(C2CC2)cn1	5.6	
CCc1cnc(-n2nc(OC(C)C)c(Cc3cccc(F)c3)c2C)nc1	8.2	
COc1cnc(-n2nc(OC(C)C)c(Oc3c(F)cccc3F)c2C)nc1	7.3	
CCOc1nn(-c2ncc(C3CC3)cn2)c(C)c1Cc1ccccc1	7.6	
CCC(CC)Oc1nn(-c2ncc(C3CC3)cn2)c(C)c1Cc1ccccc1	8.8	
Cc1c(Oc2c(F)cccc2F)c(OC(C)C)nn1-c1ncccn1	5.6	
CCCc1cnc(-n2nc(OC(C)C)c(Oc3c(F)cccc3F)c2C)nc1	8.5	
CCc1ccc(-n2nc(OC(C)C)c(Cc3ccccc3)c2C)cc1	6.2	
CCCCCc1cnc(-n2nc(OCC)c(Cc3ccccc3)c2C)nc1	<5	
CCOc1nn(-c2ncc(CC)cn2)c(C)c1Oc1cc(Cl)ccc1Cl	7.6	
CCCc1cnc(-n2nc(OCC)c(Cc3ccccc3)c2C)nc1	7.5	
Cc1cnc(-n2nc(OC(C)C)c(Oc3c(F)cccc3F)c2C)nc1	7.9	
CCc1cnc(-n2nc(OC(C)C)c(Oc3c(F)cccc3F)c2C)nc1O	7.8	

SMILES	pMIC50 (Measles morbillivirus [1])	further results
Cc1c(Cc2ccccc2F)c(OC(C)C)nn1-c1ncc(C2CC2)cn1	8.9	IC50 [2]: 12.6 nM
CCC(C)Oc1nn(-c2ncc(C3CC3)cn2)c(C)c1Cc1ccccc1 (centres undefined)	8.7	
CCc1cnc(-n2nc(OC(C)C)c(Oc3cccc(F)c3F)c2C)nc1	7.2	
CCOc1nn(-c2ncccn2)c(C)c1Cc1ccccc1	5.5	Activity (HEK293): Non-toxic; MIC50 (Measles morbillivirus [1]): 2.72 µM (≈ 0.801 µg/mL)
CCc1cnc(-n2nc(O)c(Cc3ccccc3)c2C)nc1	6.3	
CCc1cnc(-n2nc(OC(C)C)c(Oc3ccccc3F)c2C)nc1	8.1	
CCOc1nn(-c2ncc(C)cn2)c(C)c1Cc1ccccc1	7.5	
CCc1cnc(-n2nc(OC(C)C)c(Oc3cccc(F)c3)c2C)nc1	6.6	
CC(C)Oc1nn(-c2ncc(C3CC3)cn2)c(CN(C)C)c1Cc1ccccc1	<5	
CCOc1nn(-c2ncc(OC)cn2)c(C)c1Cc1ccccc1	6.2	
COCc1c(Cc2ccccc2)c(OC(C)C)nn1-c1ncc(C2CC2)cn1	7.2	
CCOc1nn(-c2ncc(CC)cn2)c(C)c1Oc1cccc(Cl)c1Cl	6.8	
CCOc1nn(-c2ncc(CC)cn2)c(C)c1Oc1ccccc1Cl	6.9	
CCOc1nn(-c2ncc(Br)cn2)c(C)c1Cc1ccccc1	7	
CCOc1nn(-c2ncc(CC)c(C)n2)c(C)c1Cc1ccccc1	7.4	
Cc1c(Cc2ccccc2)c(OC(C)C)nn1-c1ncc(C2CC2)cn1	8.2	
CCc1cnc(-n2nc(OCCO)c(Cc3ccccc3)c2C)nc1	6.6	
CCc1cnc(-n2nc(OCCOCc3ccccc3)c(Cc3ccccc3)c2C)nc1	7.3	
CCOc1nn(-c2ncc(CC)cn2)c(C)c1Oc1ccccc1Br	6.9	IC50 [2]: 126 nM
CCc1cnc(-n2nc(OC(C)C)c(Cc3ccccc3F)c2C)nc1	8.8	
Cc1c(C(O)c2ccccc2)c(OC(C)C)nn1-c1ncc(C2CC2)cn1 (centres undefined)	8.8	
CCN(CC)Cc1c(Cc2ccccc2)c(OC(C)C)nn1-c1ncc(C2CC2)cn1	5.1	

SMILES	pMIC50 (Measles morbillivirus [1])	further results
CCCc1cnc(-n2nc(OC(C)C)c(Oc3c(F)cccc3F)c2C)nc1O	7.2	
CCc1cnc(-n2nc(OC(C)C)c(Cc3ccc(F)cc3)c2C)nc1	7.4	
Cc1cnc(-n2nc(OC(C)C)c(Oc3c(F)cccc3F)c2C)nc1O	6.8	
CCOc1nn(-c2ncc(CC)cn2)c(C)c1Oc1ccccc1C(F)(F)F	6.2	
CCOc1nn(-c2ncc(CC)cn2)c(C)c1Sc1ccccc1	6.9	
CCOc1nn(-c2ncc(CC)cn2)c(C)c1Oc1cccc(C(F)(F)F)c1	7.3	
CCc1cnc(-n2nc(OC(C)C)c(Oc3cc(F)ccc3F)c2C)nc1	7.3	
Cc1c(Oc2c(F)cccc2F)c(OC(C)C)nn1-c1ncc(Br)cn1	7.9	
CCc1cnc(-n2nc(CC(C)C)c(Cc3ccccc3)c2C)nc1	7.5	
COc1nn(-c2ncc(C3CC3)cn2)c(C)c1Cc1ccccc1	7.3	
CCOc1nn(-c2ncc(CC)cn2)c(C)c1Oc1cc(Cl)cc(Cl)c1	5.9	
CCc1cnc(-n2nc(OC(C)C)c(Oc3ccc(F)cc3)c2C)nc1	6.5	
CCOc1nn(-c2ncc(CC)cn2)c(C)c1I	4.9	
CCOc1nn(-c2nccc(C)n2)c(C)c1Cc1ccccc1	6.1	
Cc1nn(-c2ncc(C3CC3)cn2)c(OC(C)C)c1Cc1ccccc1	6.8	
CCOc1nn(-c2ncc(CC)cn2)c(C)c1Oc1ccccc1F	7.2	
CCc1cnc(-n2nc(OC(C)C)c(Oc3c(F)cccc3F)c2C)nc1	9.1	
CCOc1nn(-c2ncc(CC)cn2)c(C)c1Oc1ccccc1	6.2	
CCc1cnc(-n2nc(OCCCN(C)C)c(Cc3ccccc3)c2C)nc1	6.1	
CCOc1nn(-c2ncc(CC)cn2)c(C)c1Cc1ccccc1	7.7	Activity (Measles morbillivirus [3]): Active; Activity (Measles morbillivirus [4]): inactive; Activity (Measles morbillivirus [5]): inactive
Cc1c(Oc2c(F)cccc2F)c(OC(C)C)nn1-c1ncc(C2CC2)cn1	8.9	
